Source: patent publication US12384808B2, “Modulators of TNF-α activity” (Forward Therapeutics, Inc., priority 2022, dated 2025)

These molecules were tested against TNFα (Homo sapiens, UniProt P01375) (assay: TNFα Induced HEK Blue Cellular Assay). Conditions: HEK Blue TNFα reporter cells, TNFα 100 pg/ml, 24 hrs at 37° C., secreted alkaline phosphatase (QUANTI-Blue) read at 620 nm; read-out: IC50 value.
Type: cell-based
Outline: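 Reporter cells (10,000/well, DMEM + 10% FBS) with compound (final […] to 0.5 nM) stimulated with 100 pg/ml TNFα, 24 h at 37 °C, 5% CO2. Secreted alkaline phosphatase read at 620 nm; IC50 by 4-parameter logistic fit after background correction against stimulated/unstimulated DMSO controls.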

Sequence of TNFα (P01375 77-233 limits assumed): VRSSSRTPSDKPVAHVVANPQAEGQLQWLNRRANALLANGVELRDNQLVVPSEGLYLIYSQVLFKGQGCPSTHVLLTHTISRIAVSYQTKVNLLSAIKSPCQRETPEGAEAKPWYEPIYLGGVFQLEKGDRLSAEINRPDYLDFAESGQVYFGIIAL

IC50	SMILES
< 0.1 µM	[2H]C([2H])([2H])N1C(=O)c2cccc(OC(F)F)c2[C@H]2C[C@@H]1c1nc3ccc(-c4ccc(P(C)(C)=O)c(Cl)c4)cc3n12 [Example 117, (7R,14R)-11-(3-chloro-4-(dimethylphosphoryl)phenyl)-1-(difluoromethoxy)-6-(methyl-d3)-6,7-dihydro-7,14-methanobenzo[f]benzo[4,5]imidazo[1,2-a][1,4]diazocin-5(14H)-one]
< 0.1 µM	[2H]C([2H])([2H])N1C(=O)c2cccc(OC(F)F)c2[C@H]2C[C@@H]1c1nc3ccc(-c4ccc(C(C)(C)P(C)(C)=O)nc4)cc3n12 [Example 120, (7R,14R)-1-(difluoromethoxy)-11-(6-(2-(dimethylphosphoryl)propan-2-yl)pyridin-3-yl)-6-(methyl-d3)-6,7-dihydro-7,14-methanobenzo[f]benzo[4,5]imidazo[1,2-a][1,4]diazocin-5(14H)-one]
0.1 to 1 µM	[2H]C([2H])([2H])N1C(=O)c2cccc(OC(F)F)c2[C@H]2C[C@@H]1c1nc3ccc(-c4ccc(P(C)(C)=O)c(Cl)n4)cc3n12 [Example 121, (7R,14R)-11-(6-chloro-5-(dimethylphosphoryl)pyridin-2-yl)-1-(difluoromethoxy)-6-(methyl-d3)-6,7-dihydro-7,14-methanobenzo[f]benzo[4,5]imidazo[1,2-a][1,4]diazocin-5(14H)-one]
0.1 to 1 µM	[2H]C([2H])([2H])N1C(=O)c2cccc(OC(F)F)c2[C@H]2C[C@@H]1c1nc3ccc(-c4ccc(P(C)(C)=O)c(C(F)(F)F)c4)cc3n12 [Example 122, (7R,14R)-1-(difluoromethoxy)-11-(4-(dimethylphosphoryl)-3-(trifluoromethyl)phenyl)-6-(methyl-d3)-6,7-dihydro-7,14-methanobenzo[f]benzo[4,5]imidazo[1,2-a][1,4]diazocin-5(14H)-one]
0.1 to 1 µM	[2H]C([2H])([2H])N1C(=O)c2cccc(OC(F)F)c2[C@H]2C[C@@H]1c1nc3ccc(-c4cc(F)c(P(C)(C)=O)c(C)n4)cc3n12 [Example 123, (7R,14R)-1-(difluoromethoxy)-11-(5-(dimethylphosphoryl)-4-fluoro-6-methylpyridin-2-yl)-6-(methyl-d3)-6,7-dihydro-7,14-methanobenzo[f]benzo[4,5]imidazo[1,2-a][1,4]diazocin-5(14H)-one]
< 0.1 µM	[2H]C([2H])([2H])N1C(=O)c2cccc(OC(F)F)c2[C@H]2C[C@@H]1c1nc3ccc(-c4cnc(P(C)(C)=O)c(F)c4)cc3n12 [Example 124, (7R,14R)-1-(difluoromethoxy)-11-(6-(dimethylphosphoryl)-5-fluoropyridin-3-yl)-6-(methyl-d3)-6,7-dihydro-7,14-methanobenzo[f]benzo[4,5]imidazo[1,2-a][1,4]diazocin-5(14H)-one]
< 0.1 µM	[2H]C([2H])([2H])N1C(=O)c2cccc(OC(F)F)c2[C@H]2C[C@@H]1c1nc3ccc(-c4ccc(P(=O)(CC)CC)c(F)c4)cc3n12 [Example 125, (7R,14R)-11-(4-(diethylphosphoryl)-3-fluorophenyl)-1-(difluoromethoxy)-6-(methyl-d3)-6,7-dihydro-7,14-methanobenzo[f]benzo[4,5]imidazo[1,2-a][1,4]diazocin-5(14H)-one]
< 0.1 µM	[2H]C([2H])([2H])N1C(=O)c2cccc(OC(F)F)c2[C@H]2C[C@@H]1c1nc3ccc(-c4ccc(P(=O)(CC)CC)nc4)cc3n12 [Example 126, (7R,14R)-11-(6-(diethylphosphoryl)pyridin-3-yl)-1-(difluoromethoxy)-6-(methyl-d3)-6,7-dihydro-7,14-methanobenzo[f]benzo[4,5]imidazo[1,2-a][1,4]diazocin-5(14H)-one]
< 0.1 µM	[2H]C([2H])([2H])N1C(=O)c2cccc(OC(F)F)c2[C@H]2C[C@@H]1c1nc3ccc(-c4cnc(P(=O)(CC)CC)c(F)c4)cc3n12 [Example 127, (7R,14R)-11-(6-(diethylphosphoryl)-5-fluoropyridin-3-yl)-1-(difluoromethoxy)-6-(methyl-d3)-6,7-dihydro-7,14-methanobenzo[f]benzo[4,5]imidazo[1,2-a][1,4]diazocin-5(14H)-one]
< 0.1 µM	[2H]C([2H])([2H])N1C(=O)c2cccc(OC(F)(F)F)c2[C@H]2C[C@@H]1c1nc3ccc(-c4ccc(P(C)(C)=O)c(F)c4)cc3n12 [Example 128, (7R,14R)-11-(4-(dimethylphosphoryl)-3-fluorophenyl)-6-(methyl-d3)-1-(trifluoromethoxy)-6,7-dihydro-7,14-methanobenzo[f]benzo[4,5]imidazo[1,2-a][1,4]diazocin-5(14H)-one]
< 0.1 µM	[2H]C([2H])([2H])N1C(=O)c2cccc(OC(F)F)c2[C@H]2C[C@@H]1c1nc3ccc(-c4cc(F)c(P(C)(C)=O)c(OC)c4)cc3n12 [Example 129, (7R,14R)-1-(difluoromethoxy)-11-(4-(dimethylphosphoryl)-3-fluoro-5-methoxyphenyl)-6-(methyl-d3)-6,7-dihydro-7,14-methanobenzo[f]benzo[4,5]imidazo[1,2-a][1,4]diazocin-5(14H)-one]
< 0.1 µM	[2H]C([2H])([2H])N1C(=O)c2cccc(OC(F)F)c2[C@H]2C[C@@H]1c1nc3ccc(-c4cc(F)c(P(C)(C)=O)cc4OC)cc3n12 [Example 130, (7R,14R)-1-(difluoromethoxy)-11-(4-(dimethylphosphoryl)-5-fluoro-2-methoxyphenyl)-6-(methyl-d3)-6,7-dihydro-7,14-methanobenzo[f]benzo[4,5]imidazo[1,2-a][1,4]diazocin-5(14H)-one]
10 to 30 µM	[2H]C([2H])([2H])N1C(=O)c2cccc(OC(F)F)c2[C@H]2C[C@@H]1c1nc3ccc(-c4cc(N)c(P(C)(C)=O)c(F)c4)cc3n12 [Example 131, (7R,14R)-11-(3-amino-4-(dimethylphosphoryl)-5-fluorophenyl)-1-(difluoromethoxy)-6-(methyl-d3)-6,7-dihydro-7,14-methanobenzo[f]benzo[4,5]imidazo[1,2-a][1,4]diazocin-5(14H)-one]
< 0.1 µM	[2H]C([2H])([2H])N1C(=O)c2cccc(OC(F)F)c2[C@H]2C[C@@H]1c1nc3ccc(-c4cc(C)c(P(C)(C)=O)c(F)n4)cc3n12 [Example 132, (7R,14R)-1-(difluoromethoxy)-11-(5-(dimethylphosphoryl)-6-fluoro-4-methylpyridin-2-yl)-6-(methyl-d3)-6,7-dihydro-7,14-methanobenzo[f]benzo[4,5]imidazo[1,2-a][1,4]diazocin-5(14H)-one]
< 0.1 µM	[2H]C([2H])([2H])N1C(=O)c2cccc(OC(F)F)c2[C@H]2C[C@@H]1c1nc3ccc(-c4cc(F)c(P(C)(C)=O)c(C#N)c4)cc3n12 [Example 133, 5-((7R,14R)-1-(difluoromethoxy)-6-(methyl-d3)-5-oxo-5,6,7,14-tetrahydro-7,14-methanobenzo[f]benzo[4,5]imidazo[1,2-a][1,4]diazocin-11-yl)-2-(dimethylphosphoryl)-3-fluorobenzonitrile]
< 0.1 µM	[2H]C([2H])([2H])N1C(=O)c2cccc(OC(F)F)c2[C@H]2C[C@@H]1c1nc3ccc(-c4cnc(P(C)(C)=O)c(C)c4)cc3n12 [Example 134, (7R,14R)-1-(difluoromethoxy)-11-(6-(dimethylphosphoryl)-5-methylpyridin-3-yl)-6-(methyl-d3)-6,7-dihydro-7,14-methanobenzo[f]benzo[4,5]imidazo[1,2-a][1,4]diazocin-5(14H)-one]
